Molecules are shown by their SMILES.

The test system of series [1] is CAR-regulated genes in LS174T cells. Put plainly: Quantitative real-time PCR in LS174T cells. As to conditions: 1 μM CINPA1 or 5 μM PK11195, 24 h. It counts as cell-based. An excerpt:
(§1) RNA was extracted, cDNA synthesized, and gene expression analyzed by performing real-time PCR using Taqman probes for each gene. […] LS174T cells were maintained in 10% charcoal-dextran-treated, FBS media for 4 days before the experiment. […] Briefly, human primary hepatocytes (HPH) were maintained in William's E media with supplements for 4 days before treatment. […] RNA extracted was used for cDNA synthesis and measured by performing quantitative real-time PCR assays with Taqman probes.
(§2) Briefly, LS174T were maintained in 10% charcoal-dextran treated-FBS media for 4 days prior to the experiment. […] For the data shown in both FIG. 12A and FIG. 12B, RNA extracted was used for cDNA synthesis and measured by quantitative real-time PCR with Taqman probes. MDR1 mRNA was normalized to the internal control 18S and DMSO treated samples were set to 1. *, p<0.05 when compared to DMSO samples.
(§3) Cell lines or human hepatocytes were treated with chemicals for 24-48 hours before RNA was extracted and purified by using the Maxwell 16LEV simplyRNA tissue kit (Promega). Then, cDNA was prepared from 2 μg of RNA, and diluted cDNA was used to perform quantitative RT-PCR assays by using TaqMan probes (ABI; 7500 Thermocycler) with 18S as the internal standard.
For orientation: Real-time PCR tracks product formation cycle by cycle.

In series [2] the test system is CAR-regulated genes in HepG2-hCAR1 cells. Put plainly: Quantitative real-time PCR in HepG2-hCAR1 cells. It counts as cell-based, human.
From the text: as §1, §2, §3

The subject of series [3] is HepG2, LS174T, and HEK293T cells. Put plainly: Cell viability (CellTiter-Glo). Background: Cellular ATP, detected with luciferase, serves as a proxy for viable cell number.
Protocol: Cells were treated with indicated compounds for 24 h, and viability was measured by using CellTiter-Glo® reagent. […] Cell viability was measured 4 days post treatment by using CellTiter-Glo® reagent. Viability of cells treated with DMSO (negative control) was set to 100% in all assays.
Series [4] relates to CAR- and PXR-regulated genes in human primary hepatocytes. The experiment in a line: Quantitative real-time PCR in human primary hepatocytes. It counts as cell-based. To be noted: 48 h.
From the text: as §1
Briefly, human primary hepatocytes (donor 5) were maintained in William's E Media with supplements for 4 days prior to treatment. […] RNA extracted was used for cDNA synthesis and measured by quantitative real-time PCR with Taqman probes. CYP2B6 and CYP3A4 mRNA were normalized to the internal control 18S and DMSO-treated samples were set to 1.
as §3

The subject of series [5] is FLAG-hCAR1 nuclear localization. Put plainly: Immunofluorescence of FLAG-hCAR1 in U2OS cells. As to conditions: 5 μM CINPA1, 2 h. It counts as cell-based, human. The procedure: Briefly, CAR binding to PGC-1α coactivator peptide was determined by using the LanthaScreen® fluorescent coregulator peptide assay. Fluorescein-labeled PGC-1α peptide (125 nM) was complexed with GST-hCAR-LBD (5 nM) and Tb-anti-GST antibody (5 nM) as described in Experimental Procedures. […] Lysates were prepared, and CAR expression was analyzed by Western blot using CAR monoclonal antibody (Clone N4111, R&D Systems). β-actin was used as a loading control. […] Briefly, U2OS cells were transfected to express FLAG-hCAR1. […] Secondary antibody labeled with Alexa Fluor® 555 dye was used to visualize FLAG-tagged hCAR1 (shown in the second column) using a NikonC 1Si microscope. Nuclei were stained with DAPI (shown in the first column).
U2OS cells were transiently transfected to express FLAG-hCAR1. […] Cells were fixed by using a 4% paraformaldehyde solution (Sigma), permeabilized by using 0.5% Triton X-100 in PBS, and incubated with FLAG-antibody overnight at 4° C. Cells were washed three times with PBS following each step. Secondary antibody labeled with Alexa Fluor® 555 dye was used to visualize FLAG-tagged hCAR1 (red) using a NikonC 1Si microscope. Nuclei were stained with DAPI (blue).

For `CCOC(=O)Nc1ccc2c(c1)N(C(=O)CN(CC)CC)c1ccccc1CC2` [CINPA1], the “CYP2B6 mRNA level” value in series [1] is “moderately reduced the levels of CYP2B6”; in series [2] (HepG2-hCAR1, 1 μM, 24 h) it was “substantially and significantly attenuated”. The “CYP3A4 mRNA level” value in series [1] was “without significantly affecting CYP3A4”; in series [2] (HepG2-hCAR1, 1 μM, 24 h), “substantially and significantly attenuated”. Moreover, the “MDR1 mRNA level” value is given as “reduced MDR1 levels” in series [1] and “reduced MDR1 levels” in series [2] (HepG2-hCAR1, 0.1 μM CINPA1 or 1 μM PK11195, 24 h). For the same compound, the “cytotoxicity at higher concentrations” value in series [3] (30 μM and 60 μM) was “cytotoxic to varying degrees”. Besides, the general cytotoxicity entry in series [3] (concentration range effective in inhibiting CAR and PXR, 4-day assay) is given as “does not exhibit general cytotoxicity”. The “CITCO-induced CAR transactivation of the CYP2B6 gene” value in series [4] (1 μM CITCO plus CINPA1 (5, 1 or 0.3 μM for Donor 1, 2, 3)) was “effectively inhibited”. Further, the “rifampicin-induced PXR-mediated gene expression” value in series [4] (5 μM CINPA1 with 10 μM rifampicin) is listed as “could not reduce”. Also, the “nuclear localization of CAR” value in series [5] is listed as “does not alter the nuclear localization of CAR”.

Values taken from patent publication US9908890B2, “Selective inhibitors of constitutive androstane receptor” (ST. JUDE CHILDREN'S RESEARCH HOSPITAL, priority 2014, dated 2018).
